The numbers were not newly measured in patent publication US20060252804A1, “Flupirtin injectable galenic form” (AWD.pharma GMBH &Co. KG, priority 2003, published 2006), which cites them from elsewhere.

For the data set the following is noted: in aqueous solutions and in most physiologically tolerated organic solvents.

Take `CCOC(=O)Nc1ccc(NCc2ccc(F)cc2)nc1N` [flupirtine, 2-amino-3-carbethoxyamino-6-(4-fluorobenzylamino)pyridine]: the solubility result is “scarcely soluble”.
